In patent publication US20030216427A1, “Amine derivatives for the treatment of apoptosis” (priority 2000, published 2003):

Assays:
[1] = biological target: T1, recombinant Bax (Homo sapiens, UniProt Q07812); assay: In vitro assay for cytochrome c release (mouse liver mitochondria incubated with recombinant Bax); type: biochemical; conditions: compound at a concentration of 10 μM, 200 nM recombinant Bax
T1 construct: Bax-α lacking 20 amino acids at the COOH-terminus; GST (cleaved yes); His; made in house; host or cells: Escherichia coli
T1 sequence (Q07812 1-172 limits assumed): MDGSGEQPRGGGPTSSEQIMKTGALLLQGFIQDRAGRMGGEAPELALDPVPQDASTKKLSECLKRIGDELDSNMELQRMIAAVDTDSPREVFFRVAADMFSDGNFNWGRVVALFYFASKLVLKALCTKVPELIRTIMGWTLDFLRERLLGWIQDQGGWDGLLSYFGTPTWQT
Description: Hunan Bax-α lacking 20 amino acids at the COOH-terminus is expressed as a GST fusion protein or a His-tagged protein in Escherichia coli, and the protein is purified from the soluble cell fraction. In brief, the GST-Bax fusion protein is applied to a glutathione-Sepha-rose column, and Bax was released by cleavage with thrombin (0.6U/mL). Bax is subsequently purified on heparin-Sepharose, followed by fast protein liquid chromatography (FPLC) Mono Q. His-tagged Bax is purified on a Ni-nitriloacetic acid-agarose column followed by FPLC MonoQ:
Mitochondria are isolated from mouse liver cells by differential centrifugation Cells are broken with a dounce homogenizer and the suspension is centrifuged at 2,000 g in an Eppendorf centrifuge at 4° C. This procedure is repeated until almost all the cells are broken. Supernatants from each step are pooled before centrifugation at 13,000 g at 4° C. for 10 min. […]
Mitochondria (30 μg) from mouse liver are incubated with 200 nM recombinant Bax in the presence of various compounds (5 μM) in 200 μL of KCl buffer for 20 min at 30° C. and are then centrifuged for 4 min at 13,000 g at 4° C. […] Antigen-antibody complexes are detected using horseradish peroxidase-conjugated goat anti-rabbit IgG and enhance chemi-luminescence detection reagents. The cytochrome c bands are scanned and quantified using a Bio-Rad (GS-700 Imaging Densitometer).

[2] = tested on: Sympathetic neurons from superior cervical ganglia (SCG) of newborn rats; assay: Sympathetic neuron culture and survival assay; type: cell-based, rat; conditions: compound at 10 μM; 24 hours after cell death induction by anti NGF antibody, MTT
Description: Cell death is induced at day 4 after plating by exposing the culture to medium containing 10 µg/ml of anti NGF antibody (Boehringer Mannheim Corp., Indianapolis, Ind.) and no NGF or arabinosine, in the presence or absence of amino derivatives according to formula I. 24 hours after cell death induction, determination of cell viability is performed by incubation of the culture for 1 hour, at 37° C. in 0.5 mg/ml of 3-(4,5-dimethyl-thiazol-2-yl)2,5 diphenyl tetrazolium bromide (MTT). After incubation in MTT cells are re-suspended in DMSO, transferred to a 96 MTT plate and cell viability is evaluated by measuring optical density at 590nm.

[3] = tested on: Bid-induced Bax activation; assay: Release of cytochrome c triggered by Bid-induced Bax activation (mitochondria isolated from HeLa cells); type: biochemical; conditions: compound at a concentration of 5 μM, 10 nM recombinant Bid
Description: Concerning the Bid-induced activation of Bax leading to mitochondrial Cytochrome C release, it is referred to the description of Martinou et al. in The Journal of Cell Biology, Vol. 144, No. 5, Mar. 8, 1999, pages 891-901 as well as Eskes, Desagher, Antonsson and Martinou in Molecular and Cellular Biology, February 2000, p. 929-935, Vol. 20, No. 3. Mitochondria isolated from HeLa cells are incubated for 15 min at 30° C. in 100 μl of KCl buffer in the presence or absence of 10 nM recombinant Bid. […] Following incubation, mitochondria were centrifuged for 5 min at 13000 g at 4° C. and the supernatant is collected for cytochrome c analysis. Cytochrome c is detected by Western blotting. The cytochrome c bands are scanned and quantified using a Bio-Rad (GS-700 Imaging Densitometer).

[4] = tested on: gerbils; assay: Global ischemia in gerbils (in vivo); set-up: species or system gerbil; conditions: 30 mg/kg, 5 min carotid occlusion
Description: The ability of the amine compounds of formula I to protect cell death during a stroke event may be assessed using the following protocol:
Anesthesia: halothane or isoflurane (0.5-4%).
Sheaving of the gorge and incision of the skin.
The common carotid arteries (left and right) are freed from tissue.
Occlusion of the arteries using Bulldog microclamps during 5 min.
Disinfection of the surgery plan (Betadine®) and suture of the skin (Autoclip® or Michel's hooks).
Stabulation of the animals under heating lamp until awake.
Stabulation of the animals in the animalry in individual cages.
7 days after ischemia (Decapitation or overdose of pentobarbital).
Freezing of the brain in isopentane (−20° C.)
Slicing of the hippocampus using a cryo-microtome (20 μm).
Staining with cresyl violet and/or TUNEL method
Evaluation of the lesions (in CA1/CA2 subfields of the hippocampus)
Gerhard & Boast score modified or
Cell counting in the CA1/CA2
Microdissection of the cerebral structures
Parameters determined: DNA fragmentation, lactate, calcium penetration.
Analytical methods: ELISA, colorimetry, enzymology, radiometry.
Administration of the test article or the vehicle: 15 min after reperfusion (5-10 min after the recovery of the anesthesia).
50 animals : 5 groups of 10 (group A: control, groups B-D : test article at 3 doses and group E : reference compound (ketamine 3×120 mg/kg, ip or Orotic acid 3×300 mg/kg, ip).

[5] = tested on: male Wistar rats; assay: Kainate-induced neuronal cell death in the rat hippocampus; type: in vivo; conditions: dose of 30 mg/kg (i.v.)
Description: The compounds of the present invention were also subjected to the model of kainate-induced neuronal cell death in the rat hippocampus. The method used was adapted from Gelowitz, Paterson, Pharmacol.Biochem.Behav., 62: 255-62 (1999), Magyar et al. Transm.Suppl., 52: 109-23 (1998) as well as Sperk et al, Brain Re., 338: 289-95 (1985). […] According to a preferred embodiment, the tested compounds display a protection rate of at least 25%, preferably of at least 40% at a dose of 30 mg/kg (i.v.)

[6] = tested on: male Wistar rats; assay: Transient model of focal cerebral ischemia (transient middle cerebral artery occlusion); type: in vivo, rat; conditions: dose of 1 mg/kg (i.v.)
Description: The compounds of the present invention were also subjected to the transient model of focal cerebral ischemia. The method used was adapted from Nagasawa and Kogure, Stroke, 20, 1037, 1989 as well as Zea Longa, Weinstein, Carlon and Cummins, Stroke, 20, 84, 1989.

Structure (SMILES): CCCCCCCCCCCCC(=O)N1CCC[C@H]1C(=O)NCCCCCCN [Example 7, (S)-N-(6-aminohexyl)-1-tridecanoylpyrrolidine-2-carboxamide]
- inhibition at 10 µM [1]: ~88%

Structure (SMILES): CCCCCCCCCCCCC(=O)N1CCCC[C@@H]1C(=O)NCCCCCCN [Example 2, (R)-N-(6-aminohexyl)-1-tridecanoylpiperidine-2-carboxamide]
- neuronal survival rate [2]: about 41%

Structure (SMILES): CCCCCCCCCCCCC(=O)N(C)[C@H](C(=O)NCCCCCCN)C(C)C [Example 22, (S)-N-(1-{[(6-aminohexyl)amino]carbonyl)-2-methylpropyl)-N-methyltridecanamide]
- inhibition of the cytochrome c release [3]: about 95%

Structure (SMILES): CCCCCCCCCCCCC(=O)N1CCCC[C@H]1C(=O)NCCCCCCN [Example 1, (S)-1-Tridecanoyl-piperidine-2-carboxylic acid (6-amino-hexyl)-amide]
- protection rate of cell survival [4]: about 45%
- protection rate [5]: about 50%
- decrease in the cortex infarct volume [6]: about 56%

Structure (SMILES): CCCCCCCCCCCCC(=O)N1CCC[C@@H]1C(=O)NCCCCCN [Example 139, (R)-N-(5-aminopentyl)-1-tridecanoylpyrrolidine-2-carboxamide]
- protection rate of cell survival [4]: ~55%
